Entries after “also recorded” stand apart in the source; their conditions may differ. Ends that are not written are not given here.
Key:
[1] = Effect of Ca+2 ions on hydrogel formation; type: physicochemical; design: key: Hydrogel formation (✓); * partial formation of hydrogel over hours; conditions: peptide final concentration 1.34% weight
Procedure: With the addition of Ca^+2 ions to the solution of the peptide the system may form a hydrogel. These hydrogels are obtained at peptide concentrations smaller and at pH values higher than those without the ions. […] It is possible that the Ca^+2 may also induce cross linking between strands in a mechanism similar to that of alginate hydrogel formation. The concentration of Ca^+2 ions in the hydrogel are a few times larger than in the body serum (2.5 mM). This is envisaged to yield a better environment for the bone forming osteoblast cells. In any event, the Ca^+2 provides an additional parameter to control the hydrogel rheological and stability properties.
Peptides, 2% (w/v) in the liquid state were dissolved in 0.05 M NaOH to yield 7.0<pH<7.5 solution.

[2] = Formation of hydrogels by additional peptides; type: physicochemical; conditions: 4% weight in 100 μl NaOH solution
Source text: Additional peptides were studies in order to elucidate the role of termini Proline residue in hydrogel formation, to test the effect of peptide length and peptide termini protecting groups.

SaOS2 cells = experiment: Quantitative evaluation of SaOS2 growth on 2D hydrogels (LIVE/DEAD Viability/Cytotoxicity Kit); type: cell-based; conditions: 3% w/v hydrogel, vs uncoated wells
Procedure: On 2D hydrogels: Quantitative studies of cell proliferation were performed in 2D systems of PFD-13 (3% w/v) hydrogels that were formed with DMEM+bicarbonate at pH ˜7.0 in 96-wells plates.
The plates were sterilized by gamma irradiation (5000 rad). 50 μl of culture media were pipette on top of each hydrogel for conditioning. After 1 h at room temp, SaOS2 cells were seeded on top of the hydrogels. Single cell suspensions obtained after trypsinization which diluted to concentration of 1×10^5 cells/1 ml. 50 μl of this cell suspension was seeded on top of each hydrogel. Triplicates of none coated wells were seeded and served as control. After 1 h of incubation, medium was added to complete the volume to 200 μl in each well ([…] and 150 μl in the uncoated wells). Culture medium was exchanged twice a week. Viability of the cells was evaluated every week, over a month, using the LIVE/DEAD Viability/Cytotoxicity Kit (Molecular Probes, Invitrogen, France) following the manufacturer's instructions. […] Ethidium-III enters dead cells with damaged membranes and undergoes a 40-fold enhancement of fluorescence upon binding to their DNA, leading to a red fluorescent signal. The plates were measured in a plate reader (calcein: Ex=495 nm, Em=515 nm. ethidium: Ex=530 nm, Em=635 nm). After measuring the medium fluorescence, the gain was set constant for each probe. […]

human stomach = conditions: healthy volunteers, doses prescribed for osteoporosis and Pagets disease of bone; cited from earlier work
Sprague-Dawley rats [3] = experiment: Antigenicity (immunity) test, single intramuscular administration of hydrogel; type: in vivo, rat; conditions: single i.m. hydrogel, 7.5 times maximum estimated human dose, 14 days
Procedure: Immunity tests were performed to determine the safety of the compositions of the present invention. […] The control group was injected with saline. Rats were scarified after 14 days, blood was withdrawn for future hematology and biochemistry tests.

Sprague-Dawley rats [4] = experiment: In vivo toxicity, single subcutaneous administration of hydrogel
Procedure: A control group was injected with saline. Rats were sacrificed after 14 days. Hematology and biochemistry blood tests were performed, the injected area was excised and examined as well as other internal organs.

[5] = single s.c. hydrogel, about 10 times clinically relevant amount

## PDLDLDLDLDLDP [PLD-13, PD(LD)5P]
[1]; Ca+2 final concentration 20 mM
  Hydrogel formation upon the addition of CaCl2 sol.: *
[1]; Ca+2 final concentration 27 mM
  Hydrogel formation upon the addition of CaCl2 sol.: *
[1]; Ca+2 final concentration 33 mM
  Hydrogel formation upon the addition of CaCl2 sol.: *

## Pro-Asp-(Phe-Asp)6 (chain 1 PDFDFDFDFDFDFD; chain 2 PDFDFDFDFDFDFD)
[2]; NaOH conc. 0.03
  Resultant pH: ~6
[2]; NaOH conc. 0.05
  Resultant pH: ~7
  Self supporting gel formation assigned +: after several hrs.

## (Phe-Asp)6 (chain 1 FDFDFDFDFDFD; chain 2 FDFDFDFDFDFD)
[2]; NaOH conc. 0.03
  Resultant pH: ~6
[2]; NaOH conc. 0.05
  Resultant pH: ~7

## PEFEFEFEFEFEP [PFE-13, PE(FE)5P]
[1]; Ca+2 final concentration 20 mM
  Hydrogel formation upon the addition of CaCl2 sol.: ✓
[1]; Ca+2 final concentration 27 mM
  Hydrogel formation upon the addition of CaCl2 sol.: ✓
[1]; Ca+2 final concentration 33 mM
  Hydrogel formation upon the addition of CaCl2 sol.: ✓

## Pro-Asp-Phe-Asp (PDFD; printed: Pro-Asp-Phe-Asp)
[2]; NaOH conc. 0.03
  Resultant pH: ~3
  Self supporting gel formation assigned +: liquid
[2]; NaOH conc. 0.05
  Resultant pH: ~4
  Self supporting gel formation assigned +: liquid

## PDFDFDFDFDFDP [PFD-13, PD(FD)5P]
[1]; Ca+2 final concentration 27 mM
  Hydrogel formation upon the addition of CaCl2 sol.: ✓
[1]; Ca+2 final concentration 33 mM
  Hydrogel formation upon the addition of CaCl2 sol.: ✓
SaOS2 cells
  Cytotoxicity (EthD-III staining): not significant; also recorded: non toxic to the cells

## PELELELELELEP [PLE-13, PE(LE)5P]
[1]; Ca+2 final concentration 20 mM
  Hydrogel formation upon the addition of CaCl2 sol.: ✓
[1]; Ca+2 final concentration 27 mM
  Hydrogel formation upon the addition of CaCl2 sol.: ✓
[1]; Ca+2 final concentration 33 mM
  Hydrogel formation upon the addition of CaCl2 sol.: ✓

## NCCCC(O)(P(=O)(O)O)P(=O)(O)O [Alendronate, alendronate]
Human stomach
  Gastric injury: cause erosions and ulcers in the human stomach

## Ac-PDFDFDFDFDFDP-NH2 [Ac-Pro-Asp-(Phe-Asp)5-Pro-NH2]
[2]; NaOH conc. 0.03
  Resultant pH: ~6
[2]; NaOH conc. 0.05
  Resultant pH: >7.5
  Self supporting gel formation assigned +: Viscous liquid
Sprague-Dawley rats [3]
  Appearance during the experiment: appeared normal
  Survival: All rats survived
Sprague-Dawley rats [4]; rats sacrificed after 7 days
  Levels of LDH: slightly high levels
Sprague-Dawley rats [4]; rats sacrificed after 14 days
  Levels of LDH: normal
Sprague-Dawley rats [4]; [5]
  Behavior: no signs of abnormal behavior
  Body weight compared to control group: did not lose weight
  Internal organs: appeared normal
  Survival: All rats survived

Reference: patent US9457056B2, “Peptides comprising alternating hydrophobic and anionic amino acids for treatment of osteoporosis” (Ben-Gurion University of the Negev Research and Development …, priority 2007, dated 2016)
